Test results: patent publication US11028427B2, “Systems and methods for proteomic activity analysis using DNA-encoded probes” (priority 2015, dated 2021)

Columns and labels:
[1] = system: caspase 3 in lysates from HeLa cells; test: Caspase 3 activity in HeLa cell lysates with DNA-encoded probe, qPCR; assay type: cell-based; details: HeLa cell lysates with vs without staurosporine treatment to induce apoptosis
biotinylated B. CAII = biotinylated B. CAII (Bos taurus, UniProt P00921); test: Enrichment of ligands via crosslinking (SDS + stringent washes), qPCR; assay type: binding, bovine; details: 1 μM CAII
[2] = molecular target: Biotinylated B. CAII immobilized on magnetic beads (Bos taurus, UniProt P00921); test: Enrichment of ligands via solid-phase affinity pulldown, qPCR; assay type: binding, bovine; details: for Enrichment (fold change relative to non-ligand (Bz) DNA construct): Solid Phase Affinity Pull down
From the text: To prepare constructs for test selections, two CAII ligands and a non-ligand control (FIG. 17) were synthesized on a 5′-amine-modified, 40-mer oligonucleotide, which contained a PEG spacer between two 20-mer sequences as previously described. Using these oligos as primers in a PCR with unique 100-mer templates gave 100-mer dsDNA products tethered to the ligand-containing 20-mer ssDNA. DNA templates assigned to each ligand 1302 contained a unique, internal 20-mer sequence for use as a specific priming site to enable qPCR analysis of ligand enrichments. A mock library was then prepared by mixing ligand constructs GL-CBS and D-CBS at 0.1 nM each with an excess of control, non-ligand construct (Bz) (10 nM).
Using this mixture, test selections were conducted using the crosslinking approach with the sulfonyl fluoride oligo or using a traditional solid-phase selection with CAII immobilized on magnetic beads.
Biotinylated B. CAII (1.2× based on magnetic bead capacity) was immobilized onto pre-washed Nanolink Streptavidin Magnetic Beads by incubating in 0.1 M sodium phosphate, pH 8.0, 0.25 M NaCl, 0.02% (v/v) Tween-20, 1.0 mg/mL tRNA, 10 μM BSA for 2 h at RT. The magnetic beads were then separated and supernatant removed. The CAII-bound magnetic beads were then washed with the above buffer three times and a premix of ligand-dsDNA and non-ligand-dsDNA (0.1 nM and 10 nM, respectively) in the above buffer (in the appropriate volume to give the desired effective protein concentration) was added and incubated at RT for 1.5 h. The magnetic beads were then separated and DNA supernatant removed. The CAII-bound magnetic beads were then washed with the above buffer five times, maintaining the same effective protein concentration in each wash. After the final wash, the magnetic beads were suspended in […] and heated at 95° C. for 5 min. qPCR analysis of the premix and magnetic bead elution was completed by comparison of CT standard curves of identical dsDNA constructs.

BSA [3] = molecular target: T1, BSA (Bos taurus, UniProt P02769); test: Bio-layer interferometry analysis of binding to BSA; design: species or system bovine; details: BSA at 10 μM; data not shown
Method: (§1) This crosslinking likely reflects the propensity of BSA to bind to hydrophobic small molecules and potentially to sulfonamides specifically. Thus, this labeling may still be considered ligand-dependent.
DNA conjugates were purified on a Varian Pro Star HPLC system and analytical analysis on an Agilent 1100 series HPLC system, both using Agilent Microsorb-MV 300-5 C18 250×4.6 mm reverse phase columns. Analytical separations were performed using 100 mM triethylammonium acetate (TEAA), pH 5.5 in water (A) or 100 mM triethylammonium acetate in 90% MeCN (B) with a linear gradient from 5-60% B over 22 minutes. Purifications were performed using the previous or 0.75% (v/v) 1,1,1,3,3,3-hexafluoropropan-2-ol, and 10 μM EDTA to pH 7.0 with triethylamine in water (A) or 90% MeOH (B) with a linear gradient from 5-50% B over 22 minutes. ESI-MS analysis was completed using an ABSciex 4500 QTrap from fractions collected from HFIP-based HPLC purifications. MALDI analysis was completed on an Applied Biosystems Voyager DE PRO instrument operated by the Purdue University Campus-Wide Mass Spectrometry Center after TEAA-based purification, ethanol precipitation, and ZipTip cleanup. On-DNA ligand dissociation constants were determined using a ForteBio Octet Red384. […] All gel images were recorded by a GE Healthcare Typhoon Trio+ with gel band quantifications determined using ImageJ software.

BSA [4] = molecular target: T1, BSA; test: Crosslinking to BSA in reactions lacking the target protein, SDS-PAGE; assay type: binding, bovine; details: reactive group phenyl azide (5); reactions that lacked the target protein
Method: as §1
Photocrosslinking was performed as described above, except the system was allowed to incubate with both the ligand-ssDNA and reactive group-ssDNA′ for 30 minutes at RT. Irradiation was completed by exposure to a 4W 356 nm UV light source at 4° C. for 1 hour, quenched by the addition 6×SDS-loading buffer, and directly analyzed by SDS-PAGE. Gels were imaged immediately for FAM fluorescence and then Coomassie stained.

PKA = PKA (Homo sapiens, UniProt P17612); test: PKA peptide substrate kcat/Km comparison; assay type: biochemical
From the text: This extracellular PKA (ecPKA) and other ectokinase activities have recently garnered interest as useful cancer markers. However, the low levels of activity present challenges for detection using conventional methods. Conventional techniques to detect ecPKA in patient samples have relied exclusively on radioactive assays; however, exposure to radioactivity is problematic for those performing the assays, as is the cumbersome amount of paperwork and red tape associated obtaining approval for the use of radioactive assays and the disposal of radioactive waste. However, the PKA level in the serum of healthy individuals has been estimated at about 3 pM, which is below other conventional assay detection limits and, thus, problematic. Using the techniques described herein, a DNA-peptide substrate probe was synthesized based on the highly specific protein inhibitor for PKA—protein kinase inhibitor (PKI)—with the sequence […]. This peptide has about a 100-fold greater kcat/Km than the RRFSL peptide for PKA and provided a significant increase (e.g., a 100-fold) in assay sensitivity. Accordingly, the method 300 for detecting proteomic activity using DNA-encoded probes could provide sensitivity for detection of PKA activity in the bloodstream of a subject to accurately identify upregulation, for example, of ecPKA, which can be indicative of cancer.

Biotinylated B. CAII immobilized on magnetic beads, sequence (P00921 whole entry): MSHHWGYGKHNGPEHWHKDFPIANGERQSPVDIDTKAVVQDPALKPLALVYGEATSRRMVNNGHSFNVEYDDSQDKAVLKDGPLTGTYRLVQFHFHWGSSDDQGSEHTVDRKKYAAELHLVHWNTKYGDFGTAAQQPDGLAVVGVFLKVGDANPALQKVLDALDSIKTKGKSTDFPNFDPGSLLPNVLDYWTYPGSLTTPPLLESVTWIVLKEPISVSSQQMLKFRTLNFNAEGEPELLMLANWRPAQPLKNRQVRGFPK
T1 sequence (P02769 25-607): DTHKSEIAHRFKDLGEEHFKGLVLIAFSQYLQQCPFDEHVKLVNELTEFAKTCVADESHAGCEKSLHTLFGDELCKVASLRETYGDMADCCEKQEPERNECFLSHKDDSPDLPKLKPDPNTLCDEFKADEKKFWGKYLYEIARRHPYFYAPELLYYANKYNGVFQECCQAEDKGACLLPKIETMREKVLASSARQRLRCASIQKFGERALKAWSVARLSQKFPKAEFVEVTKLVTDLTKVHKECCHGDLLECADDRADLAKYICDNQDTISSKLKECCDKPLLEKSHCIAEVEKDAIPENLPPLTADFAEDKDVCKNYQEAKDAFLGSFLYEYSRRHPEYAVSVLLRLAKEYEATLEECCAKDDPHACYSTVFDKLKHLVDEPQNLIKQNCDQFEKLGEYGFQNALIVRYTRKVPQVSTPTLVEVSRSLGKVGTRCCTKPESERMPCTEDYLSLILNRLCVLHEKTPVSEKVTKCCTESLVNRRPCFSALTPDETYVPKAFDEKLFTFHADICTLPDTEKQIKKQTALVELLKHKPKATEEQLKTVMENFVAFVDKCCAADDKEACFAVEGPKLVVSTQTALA
biotinylated B. CAII, sequence (P00921 whole entry): as the sequence (P00921 whole entry) above

CN[C@@H]1C[C@H]2O[C@@](C)([C@@H]1OC)n1c3ccccc3c3c4c(c5c6ccccc6n2c5c31)C(=O)NC4 [staurosporine]
Increase in caspase activity [1]: ~6 fold

glycylleucine carboxybenzylsulfonamide [GL-CBS]
Enrichment (fold change relative to non-ligand (Bz) DNA construct) (biotinylated B. CAII; Without X-linking (3'-OH ssDNA)): 22 fold
Enrichment (fold change in concentration of ligand-DNA construct relative to non-ligand (Bz) DNA construct) (biotinylated B. CAII; X-linking with 3 (sulfonyl fluoride)): 17,000 fold
Overall enrichment in solid-phase selection compared to crosslinking selection (lower) ([2]; 1 μM CAII): 20 fold
Recovery in solid-phase selection compared to crosslinking selection (greater) ([2]; 1 μM CAII): approximately 5 fold
Enrichment (fold change relative to non-ligand (Bz) DNA construct) ([2]; 1 μM CAII): 720 fold
Enrichment (fold change relative to non-ligand (Bz) DNA construct) ([2]; 17 μM CAII (estimated)): 610 fold
Binding to BSA (BSA [3]): did not indicate binding
BSA crosslinking (BSA [4]): significant levels of BSA crosslinking

GRTGRRNSI
kcat/Km relative to the RRFSL peptide (PKA): ~100 fold
